Results taken from patent US11279695B2, “Andrographolide compound and method for treatment or prevention of fibrotic disease using the same” (Zhengzhou University, priority 2018, dated 2022).

Legend:
[1] = tested on: hepatic fibrosis in KM mice induced by bile duct ligation (BDL); experiment: Hepatic fibrosis in KM mice induced by bile duct ligation (BDL); format: in vivo; conditions: 10 days, scale 0-6
Protocol: SPF grade KM mice, healthy, male, with a body weight of 20±2 g, were purchased from Henan Experimental Animal Center. (License No. SOCK (Yu) 2017-0001).
After KM mice were fed ad libitum for 3 days, they were randomly divided into multiple groups including a sham-operated control group, a model group, an AD control group, and different compound-administered groups, six mice per group. The sham operation group and the model group were administered with 0.5% Sodium CMC (Na CMC) via gavage, and the other administration groups were administered 0.5% CMC-Na suspension of the corresponding drug, and the administration lasted for 10 days. Mice should be strictly fasting with nothing but water 12 hours prior to surgery. The mice were anesthesia by intraperitoneally injecting with 0.5% sodium pentobarbital. After limb immobilization in a supine position, the anesthetized mice were prepared. The abdomen of the mice was shaved and then swabbed with iodine to sterilize the skin regions. After spreading of surgery cloth, the abdomen was opened along the abdominal wall in the midline. The duodenum was found along the stomach, then pull upwards to just separate from the common bile duct. Double-ligated with 4/0 silk thread and disconnected the common bile duct with a distance of 0.5 cm away from the hepatic hilum. Following the examination for no bleeding and bile leakage, the 3/0 silk thread continuous suture method was used to close the abdomen layer by layer. The wound was swabbed with iodine, and the mice rest in a 37° C. warm environment until the animals were fully awake. […] Drugs were administrated by gavage on an empty stomach in the morning every day, and were given daily for 10 days. The liver was quickly excised after blood collection. The collected blood was allowed to stand in an incubator 37° C. for 45 min, and then the upper serum was collected by centrifugation at 3500 rpm for 15 min at 4° C. The liver of the lower left lobe of the mice was fixed in 10 times volume of 4% paraformaldehyde fixative, and the fixative was changed after 24 h. Pathological sections were obtained after fixation. Each section was stained with hematoxylin-eosin stain (HE) and Sirius red to observe fibrosis levels and pathological change in the liver. […] Collagen deposition was measured with Sirius red staining, and positive expression was semi-quantitatively analyzed by Image-Pro Plus. […]

[2] = tested on: human renal proximal tubule epithelial cells HK-2; experiment: In vitro cytotoxicity MTT assay on HK-2 cells; format: cell-based; conditions: 48 h, 30.00 μM equivalent dose, FIGS. 6A-6B
Protocol: HK-2 cells were cultured in a DMEM/F12 medium containing 10% (V/V) fetal bovine serum (FBS), 100 μg/mL streptomycin, and 100 IU/mL penicillin, followed by incubation at 37° C. in a humidified atmosphere with 5% CO2.
HK-2 cells in the logarithmic growth phase were digested with 0.25% (W/V) trypsin and 0.02% EDTA (W/V), diluted into 7.0×10^4 cell/mL cell suspension with DMEM/F12 medium containing 10% (V/V) FBS, and transferred into a 96-well plate for 200 μL per well. After incubation in the 37° C. incubator with 5% CO2 for 24 hours, the medium comprising different concentration of test compounds were added into the wells. Under these conditions, the maximum final drug concentration in the assay was 30.00 μM. The experiment was performed in triplicate. After further incubation for 48 hours, other steps were the same as Example 1.

[3] = tested on: silica-induced pulmonary fibrosis in KM mice; experiment: Silica-induced pulmonary fibrosis in KM mice; format: in vivo; conditions: AD at equivalent dose (40 or 120 mg/kg) ig 21 days
Protocol: SPF grade KM mice, healthy, male, with a body weight of 20±2 g, were purchased from Henan Experimental Animal Center. (License No. SOCK (Yu) 2017-0001). Silica was heated at 250° C. for 1 hour to remove endotoxin. After autoclaving the heated silica was suspended in physiological saline to yield a final concentration of 75 mg/mL suspension, and stored at 4° C. for use. The suspension was shaken and sonicated for 30 minutes prior to injection.
After mice were fed ad libitum for 3 days, they were randomly divided into six groups including a sham-operated control group, a model group, different groups of the compounds of the disclosure, eight mice per group. The mice were anesthetized with intraperitoneal injection of 0.5% sodium pentobarbital (50 mg/kg). After the immobilization in a supine position, the anesthetized mice were prepared. The neck of the mice was shaved and then swabbed with iodine to sterilize the skin regions. An incision with a length of about 1 cm was made along the neck for separating bronchus. A silica suspension proportional (150 mg/kg) to the body weight, and 100 μL of air was immediately injected into the trachea through the cartilage space of mice. After the muscle was reset, the mice were quickly rotated for 2 minutes to evenly distribute the silica. […] Mice lung was collected, weighed and the pulmonary lesion was measured. […]

[4] = 15 mg/kg ig, model group mean score 4.25

Row | SMILES | inhibitory effect on proliferation of HK-2 cells compared with AD [2] | also measured
1 | COc1ccc(C=C2C=C(C3CC4C5CCC(O)C(C)(CO)C5CCC4(C)O3)C(=O)O2)cc1 (centres unmarked) [ADY-12] |  | fibrosis pathological score for liver tissue section (mean) [1, 4]: 1.4
2 | CC1=CCC2C(C)(CO)C(O)CCC2(C)C1C=CC1=CC(=Cc2ccccc2O)OC1=O (centres unmarked) [ADC-12] | higher inhibitory effect on proliferation of HK-2 cells than the parent compound AD | 
3 | CC12CCC3C(CCC(O)C3(C)CO)C1CC(C1=CC(=Cc3ccccc3)OC1=O)O2 (centres unmarked) [ADY-5] | higher inhibitory effect on proliferation of HK-2 cells than the parent compound AD | 
4 | COc1cccc(C=C2C=C(C3CC4C5CCC(O)C(C)(CO)C5CCC4(C)O3)C(=O)O2)c1 (centres unmarked) [ADY-7] |  | fibrosis pathological score for liver tissue section (mean) [1, 4]: 0.4
5 | CC1=CCC2C(C)(CO)C(O)CCC2(C)C1C=CC1=CC(=Cc2ccc(F)cc2)OC1=O (centres unmarked) [ADC-5] | higher inhibitory effect on proliferation of HK-2 cells than the parent compound AD | 
6 | CC12CCC3C(CCC(O)C3(C)CO)C1CC(C1=CC(=Cc3ccc(Br)cc3)OC1=O)O2 (centres unmarked) [ADY-2] | higher inhibitory effect on proliferation of HK-2 cells than the parent compound AD | 
7 | COc1ccc(C=C2C=C(C=CC3C(C)=CCC4C(C)(CO)C(O)CCC34C)C(=O)O2)cc1 (centres unmarked) [ADC-11] | higher inhibitory effect on proliferation of HK-2 cells than the parent compound AD | 
8 | CC1=CCC2C(C)(CO)C(O)CCC2(C)C1C=CC1=CC(=Cc2ccc(F)c(F)c2)OC1=O (centres unmarked) [ADC-6] | higher inhibitory effect on proliferation of HK-2 cells than the parent compound AD | 
9 | C=C1CC[C@@H]2[C@](C)(CO)[C@H](O)CC[C@@]2(C)[C@@H]1C/C=C1/C(=O)OC[C@H]1O [AD, andrographolide] | lower inhibitory activity against the cell proliferation | fibrosis pathological score for liver tissue section (mean) ([1]; 15 mg/kg ig, model group mean score 4.8): 2.83; fibrosis pathological score for liver tissue section (mean) ([1]; 40 mg/kg ig, model group mean score 4.8): 2.10; pulmonary fibrosis score [3]: 3.8-4.9
10 | CC12CCC3C(CCC(O)C3(C)CO)C1CC(C1=CC(=Cc3ccc(O)cc3)OC1=O)O2 (centres unmarked) [ADY-8] | higher inhibitory effect on proliferation of HK-2 cells than the parent compound AD | 
11 | CC12CCC3C(CCC(O)C3(C)CO)C1CC(C1=CC(=Cc3ccc(F)c(F)c3)OC1=O)O2 (centres unmarked) [ADY-6] | higher inhibitory effect on proliferation of HK-2 cells than the parent compound AD | 
